Six compounds from patent US20150023954A1, “POTENTIATING ANTIBODY-INDUCED COMPLEMENT-MEDIATED CYTOTOXICITY VIA PI3K INHIBITION” (MEMORIAL SLOAN-KETTERING CANCER CENTER, priority 2012, published 2015) can be followed below.

“Also recorded” adds a separate entry of the source.

Data set [1] has as its system CHLA136Luc cells. The data set can be described thus: IV CHLA136Luc tumor challenge in SCID mice: survival and tumor growth by luciferase imaging. The data set is classed as in vivo, CB17 SCID mice. The procedure:
Animals. CB17 SCID mice (Taconic) 5-8 weeks old were housed 5 to a cage. The Memorial Sloan Kettering Cancer Center Institutional Animal Care and Use Committee (IACUC) approved all protocols and procedures.
Tumor Challenge. Mice were placed under a heat lamp for 3 minutes and immobilized in a mouse restrainer; 0.5 million CHLA136Luc cells in 100 μl were injected into the tail vein using a BD insulin syringe with 28 gauge needle.
(§1) mAb administration. Mice were treated with murine mAbs 3F8, PGNX, R24, against GD2, GM2, GD3 and Rituxan against CD20. Control mice, typically 2 cages of 5 mice, were treated identically, receiving the same volume of PBS at the same intervals.
Imaging. Mice were anaesthetized using isoflurane and injected with 300 μg of D-Luciferin Firefly (Caliper LifeScience, Hopkinton, Mass.). They were imaged 10 minutes later using the IVIS200 in vivo imaging system (Caliper Life Science) over periods of time ranging up to 3 minutes using the software program “Living Image 3.0” (Caliper Life Science). Values are reported as photons/second.
Statistical analysis. Overall survival was defined as the time from IV tumor cell challenge to date of death or day 160. Survival distributions were generated using Kaplan-Meier methodology (Kaplan, “Nonparametric estimation from incomplete observations”, J. Am. Stat. Assoc., 1958, 53:457-81) and comparisons between treatment group and control (PBS) were made via the […] (using Graphpad Prism 5).

The subject of data set [2] is CHLA136Luc cells. The data set can be described thus: WST-1 cell growth assay, CHLA136Luc. The format is cell-based, human. Particulars: for higher mAb dose (plus complement) cytotoxicity / low mAb dose (plus complement) growth acceleration: all inhibitor dose levels, with PGNX, 18 hours. An excerpt:
(§2) WST-1 assay. […] The Student t test was used for statistical analysis.

The next data set deals with DaudiLuc cells. The data set can be described thus: WST-1 cell growth assay, DaudiLuc. The format is cell-based, human.
Source text: as §2
In general terms: Tetrazolium assays rely on reduction of a dye to a coloured formazan, in cell work by metabolically active cells.

In data set [3] the test system is p-Akt. The data set can be described thus: Western blot of p-Akt in CHLA136Luc cell extracts. The data set is classed as cell-based, human. Particulars: BEZ235; cells treated with PGNX 0.001 μg/m for 4 hours. The method, then: (§3) Western blot. 1×10^6 Cells were plated into 6 well plates and incubated overnight. Cells were then treated with BEZ235, mAbs and human sera complement at the dose indicated for 4 hours. At the end of incubation, cells were collected and lysed with lysis buffer from Cell Signal (Danvers, Mass.), which contains protease inhibitor cocktail and phosphatase inhibitor cocktail (Calbiochem, Philadelphia, Pa.), each at 1:100 dilution (Cocktails:lysis buffer). The cell lysates were then quantitated using Bradford assay (Bio-Rad, Hercules, Calif.) according to that company's manual: 30 μg of cell lysate protein from each sample were running on 7.5% of Tris-HCL gel (Bio-Rad) and transferred to a PVDF membrane. Membrane was then blocked with Pierce blocking buffer overnight at 4° C., probed with indicated mAbs at 1:1000 dilution overnight at 4° C. and HRP-goat anti-rabbit-IgG antibody at 1:1000 for 1 hour. The membrane was washed with PBS-T (0.1% Tween-20+PBS) 5 minutes on a shaker 5 times after each incubating and then developed using Amersham™ ECL™ Prime Western Blotting Detection Reagent (GE Healthcare, Piscataway, N.J.). Imaging was acquired by scanning the membrane on the FujiFilm LAS-3000 Imager.
In general terms: Immunoblotting shows a protein as a band on a membrane.

For another data set, the system named is p-PRAS40. The data set can be described thus: Western blot of p-PRAS40 in CHLA136Luc cell extracts. The format is cell-based, human. Particulars: BEZ235; cells treated with PGNX 0.001 μg/m for 4 hours. The method, then:
as §3

Data set [4] deals with p-Akt. The data set can be described thus: Western blot and immunofluorescent staining of p-Akt in Colo205 cells. The format is cell-based. The procedure: as §3
Data set [5] relates to Colo205Luc cells.
Method: (§4) WST-1 assay. WST-1 cell proliferation assay kit was used for detection of the extent of cellular proliferation according to the company's manual. Briefly, 20,000 cells in 100 μl of culture media as defined above were plated in a 96 well flat bottom plate and incubated at 37° C. in 5% CO2 overnight. Antibody doses between 0.02 ρg to 5 μg in 1 μl of defined culture media were added to each well and incubated for 1 hour at 37° C., 5% CO2; 4-10 μl of human serum complement (Quidel Corp. San Diego, Calif.) was then added to each well and incubated overnight. For assays testing the impact of PI3K inhibitor, BEZ235 (Chemdea, Ridgewood, N.J.) at 0.005, 0.5 or 5.0 μg/ml were added accordingly at same time when mAb was added. WST-1 agent (Roche Applied Science, Indianapolis Ind.) was added at 1:10 ratio at the end of incubation, and OD (Optical density) was acquired by reading the plates at 415 nm 4 hours later. The Student t test was used for statistical analysis.
Data set [6] relates to Colo205Luc cells. Briefly: Cell growth assay, Colo205. The note with it: for 5B1 cytotoxicity: all inhibitor doses tested, overnight with mAb 5B1 and HuC 5%; for tumor cell (Colo205) growth: high concentration of antibody, better than either inhibitor alone (FIG. 5C, 5D); for PGNX induced tumor cell cytotoxicity: highest PGNX and inhibitor dose tested; for tumor cell growth induced by low dose PGNX and complement: low dose PGNX (e.g., 0.0001 μg/ml), HuC′ 50 μl/ml.
Method: as §4

Another data set has as its system tumor cells. The data set can be described thus: Cell growth experiments with MEK inhibitors and low dose PGNX. The format is cell-based. Particulars: PGNX less than 0.0001 μg/m; AZD6244 0.1 μM-5.0 μM; data not shown.
Source text: as §2

The next data set concerns CD20. The data set can be described thus: In vivo experiments targeting CD20 (Rituxan): tumor growth. The arrangement: species or system SCID mice. Particulars: data not shown. The procedure:
as §1

Data set [7] has as its system CHLA136Luc, Lan-1-Luc, H524, Hs445, Daudi cells. The data set can be described thus: In vitro cell growth (WST-1) with mAbs and human complement on selected cell lines (FIG. 3). The data set is classed as cell-based.
Source text: as §2

The subject of a further data set is Hs445. Briefly: WST-1 cell growth assay, Hs445. The format is cell-based, human. The note with it: low dose, six experiments.
Source text: as §2

[8] abbreviates: BEZ235 alone, 25 or 12.5 mg/kg by gavage daily for 2 weeks.

Regarding `Cn1c(=O)n(-c2ccc(C(C)(C)C#N)cc2)c2c3cc(-c4cnc5ccccc5c4)ccc3ncc21` [BEZ235], the CHLA136Luc growth entry in the data set with CHLA136Luc cells [1] (setting [8]) is reported as “significantly reduced”. Further, the survival result in the data set on CHLA136Luc cells [1] (setting [8]) is on record as “prolonged survival”. In the data set with CHLA136Luc cells [1] (BEZ235 by gavage with high dose mAb), the “high mAb dose induced growth inhibition” value is reported as “increased”. Also, the “low dose mAb (PGNX) induced early tumor growth acceleration” value with CHLA136Luc cells [1] (BEZ235 by gavage with low-dose PGNX) was “eliminated; also recorded: preventing; also recorded: prevented”. Further, the “survival of challenged SCID mice” value in the data set on CHLA136Luc cells [1] (BEZ235 with mAbs, compared with high-dose PGNX and 3F8 alone) was “significantly increasing survival”. The “effect on proliferation compared to Wortmannin” value in the data set on CHLA136Luc cells [2] and in the data set on Colo205Luc cells [6] was “greater effect” each time. In addition, the “cell growth in vitro” value in the data set on CHLA136Luc cells [2] (BEZ235) and in the data set with DaudiLuc cells (BEZ235) was “decreased” each time. Further, the “mAb cytotoxicity and low-dose growth acceleration” value with CHLA136Luc cells [2] (BEZ235 with mAbs R24 and PGNX (Table 2)) is reported as “Comparable results”. Further, the mAb cytotoxicity result in the data set with CHLA136Luc cells [2] (all BEZ235 doses tested, combined with 3F8 at various doses plus complement, vs each treatment alone) was “significantly enhanced; also recorded: increased”; with DaudiLuc cells (all BEZ235 doses tested, combined with Rituxan at various doses plus complement, vs each treatment alone), “significantly enhanced; also recorded: increased”. In addition, the “accelerated cell growth induced by low dose mAb” value with CHLA136Luc cells [2] (combined with low-dose 3F8 (0.001 μg/ml) plus complement) and in the data set with DaudiLuc cells (combined with low-dose Rituxan (0.0001 μg/ml) plus complement) was “significantly inhibited; also recorded: prevented” throughout. The results for the p-Akt expression entry with p-Akt [3] and in the data set with p-Akt [4] (BEZ235 1 μM alone) were “inhibited” and “inhibited; also recorded: decreased p-AKT”, respectively. Further, the p-PRAS40 expression result in the data set with p-PRAS40 is given as “inhibited”. For the same compound, the “treatment time giving complete inhibition of p-Akt expression” value with p-Akt [4] (BEZ235 at 1 μM) is no less than 2 h. For the same compound, the “BEZ235 dose giving complete inhibition of p-AKT expression” value with p-Akt [4] (cells treated for 4 hrs) is no less than 0.5 µM. The “cytotoxicity of Colo205luc cells” value in the data set on Colo205Luc cells [5] is recorded as “significantly enhanced”. Also, in the data set on Colo205Luc cells [6] (5B1 0.001-0.01 μg/ml (BEZ235), 0.001 μg/ml (Wortmannin)), the “accelerated cell growth induced by low dose 5B1” value is reported as “inhibited”.

Take `NC1(c2ccc(-c3nc4ccn5c(=O)[nH]nc5c4cc3-c3ccccc3)cc2)CCC1` [MK2206]: in the data set with CHLA136Luc cells [2], the “higher mAb dose (plus complement) cytotoxicity” value was “increased” and the “low mAb dose (plus complement) growth acceleration” value is recorded as “prevented”. Further, in the data set with Colo205Luc cells [6], the 5B1 cytotoxicity entry is on record as “enhanced”; the “tumor cell (Colo205) growth” value is “inhibited”; the “PGNX induced tumor cell cytotoxicity” value is “enhanced”; the “tumor cell growth induced by low dose PGNX and complement” value is “dramatically inhibited”.

Turning to `CC(=O)Nc1cccc(-n2c(=O)n(C3CC3)c(=O)c3c(Nc4ccc(I)cc4F)n(C)c(=O)c(C)c32)c1` [GSK202011], in the data set on tumor cells, the “cytotoxicity of PGNX at sublytic low dosages” value was “enhanced”.

For the compound `Cn1cnc2c(F)c(Nc3ccc(Br)cc3Cl)c(C(=O)NOCCO)cc21` [AZD6244], the “cytotoxicity of PGNX at sublytic low dosages” value in the data set with tumor cells was “enhanced”.

rituximab [Rituxan]: the tumor growth result in the data set with CD20 (doses as low as 0.001 mcg) is “slight delay of tumor growth”. Further, the accelerated tumor growth result in the data set with CD20 (doses down to 0.001 mcg) is on record as “not seen”. Moreover, in [7] (high mAb doses, with complement), the “tumor growth in vitro” value is on record as “inhibited tumor growth”. Further, in data set [7] (highest mAb doses, absence of complement), the complement-independent tumor inhibition result was “detected”. Further, the “tumor cell growth in vitro” value in data set [7] (low mAb doses, exclusively in the presence of complement) is recorded as “accelerated tumor cell growth”. In the data set with DaudiLuc cells (low dose, single experiment), the cell growth result was “significantly accelerated growth”. Also, the “experiments with significantly accelerated growth” value in the data set on Hs445 is 4.

`Nc1cc(C(F)(F)F)c(-c2cc(N3CCOCC3)nc(N3CCOCC3)n2)cn1` [BKM120]: in the data set with CHLA136Luc cells [2], the “higher mAb dose (plus complement) cytotoxicity” value was “increased” and the “low mAb dose (plus complement) growth acceleration” value is listed as “prevented”. Further, in the data set with Colo205Luc cells [6], the 5B1 cytotoxicity result was “enhanced”; the “tumor cell (Colo205) growth” value is “inhibited”; the “PGNX induced tumor cell cytotoxicity” value is listed as “enhanced”; the “tumor cell growth induced by low dose PGNX and complement” value is reported as “dramatically inhibited”.
